Source: PubChem BioAssay AID248 (DTP/NCI, 2004)
Where “and” joins values, the source holds several entries; their conditions need not be identical. Equal values may be shown once. Toxic doses and inconclusive results are not listed. No stated cut-off is given here; in the data, active means T/C of 150% or more; inactive means T/C below 125%.

System: L1210 leukemia ip in BDF1 mice, survival T/C
Experiment: NCI In Vivo Anticancer Drug Screen. Data for tumor model L1210 Leukemia (intraperitoneal) in B6D2F1 (BDF1) mice
Conditions: endpoint: mean survival time, higher = longer survival
Method in brief: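 Value reflects the ratio of survival in compound-treated mice to survival in vehicle-treated controls, with both groups carrying the same transplanted tumor.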

[1] = dose: 100.0 mg/kg/injection, schedule: Q01DX009 (ip), vehicle: Klucel (hydroxypropylcellulose) (HPC)
[2] = dose: 100.0 mg/kg/injection, schedule: Q04DX003 (ip), vehicle: Klucel (hydroxypropylcellulose) (HPC)
[3] = dose: 200.0 mg/kg/injection, schedule: Q01DX009 (ip), vehicle: Klucel (hydroxypropylcellulose) (HPC)
[4] = dose: 200.0 mg/kg/injection, schedule: Q04DX003 (ip), vehicle: Klucel (hydroxypropylcellulose) (HPC)
[5] = dose: 400.0 mg/kg/injection, schedule: Q01DX009 (ip), vehicle: Klucel (hydroxypropylcellulose) (HPC)
[6] = dose: 400.0 mg/kg/injection, schedule: Q04DX003 (ip), vehicle: Klucel (hydroxypropylcellulose) (HPC)
[7] = dose: 50.0 mg/kg/injection, schedule: Q01DX009 (ip), vehicle: saline with Tween-80
[8] = dose: 100.0 mg/kg/injection, schedule: Q01DX009 (ip), vehicle: saline with Tween-80
[9] = dose: 200.0 mg/kg/injection, schedule: Q01DX009 (ip), vehicle: saline with Tween-80
[10] = dose: 100.0 mg/kg/injection, schedule: Q01DX001 (ip), vehicle: carboxymethylcellulose (CMC)
[11] = dose: 200.0 mg/kg/injection, schedule: Q01DX001 (ip), vehicle: carboxymethylcellulose (CMC)
[12] = dose: 400.0 mg/kg/injection, schedule: Q01DX001 (ip), vehicle: carboxymethylcellulose (CMC)
[13] = dose: 25.0 mg/kg/injection, schedule: Q01DX009 (ip), vehicle: Klucel (hydroxypropylcellulose) (HPC)
[14] = dose: 50.0 mg/kg/injection, schedule: Q01DX009 (ip), vehicle: Klucel (hydroxypropylcellulose) (HPC)
[15] = dose: 12.5 mg/kg/injection, schedule: Q01DX009 (ip), vehicle: Klucel (hydroxypropylcellulose) (HPC)
[16] = dose: 100.0 mg/kg/injection, schedule: Q01DX001 (ip), vehicle: saline
[17] = dose: 200.0 mg/kg/injection, schedule: Q01DX001 (ip), vehicle: saline
[18] = dose: 400.0 mg/kg/injection, schedule: Q01DX001 (ip), vehicle: saline

Measured: T/C

Nc1ccc(C(=O)Oc2ccc([N+](=O)[O-])cc2)c(O)c1
inactive: [1] 95 % of control | [2] 100 % of control | [3] 97 % of control | [4] 88 % of control | [5] 87 % of control | [6] 96 % of control

Cc1ccc(C(=O)NO)cc1
inactive: dose: 100.0 mg/kg/injection, schedule: Q04DX003 (ip), vehicle: carboxymethylcellulose (CMC) 98 % of control | dose: 200.0 mg/kg/injection, schedule: Q04DX003 (ip), vehicle: carboxymethylcellulose (CMC) 90 % of control | dose: 400.0 mg/kg/injection, schedule: Q04DX003 (ip), vehicle: carboxymethylcellulose (CMC) 98 % of control

CNCC(O)c1cc(OC)c(OC)c(OC)c1 (stereo not given)
inactive: dose: 100.0 mg/kg/injection, schedule: Q04DX002 (ip), vehicle: saline 102 % of control | dose: 200.0 mg/kg/injection, schedule: Q04DX002 (ip), vehicle: saline 93 % of control | dose: 400.0 mg/kg/injection, schedule: Q04DX002 (ip), vehicle: saline 96 % of control

CCn1ncc2c(Nc3ccccc3)c(C(=O)c3ccccc3)cnc21
inactive: [2] 93 % of control | [4] 97 % of control | [6] 97 % of control

CCCCN(CCCC)CC(O)c1cccc2c1cc(Cl)c1ccccc12 (stereo not given)
inactive: [2] 102 % of control | [4] 97 % of control | [6] 91 % of control

CC(=O)OC(c1ccccc1)c1ccccn1 (stereo not given)
inactive: [7] 105 % of control | [8] 98 % of control | [9] 94 % of control

CN(CCNC(=O)c1ccccc1C(=O)O)c1ccccc1
inactive: dose: 100.0 mg/kg/injection, schedule: Q04DX002 (ip), vehicle: saline with Tween-80 100 % of control | dose: 200.0 mg/kg/injection, schedule: Q04DX002 (ip), vehicle: saline with Tween-80 95 % of control

CCOC(=O)C(=O)c1cn(C)c2ccccc12
inactive: dose: 50.0 mg/kg/injection, schedule: Q01DX001 (ip), vehicle: carboxymethylcellulose (CMC) 109 % of control | [10] 106 % of control | [11] 106 % of control | [12] 101 % of control

COc1ccccc1/C=C(/C)[N+](=O)[O-]
inactive: [10] 97 % of control | [11] 97 % of control | [12] 100 % of control

CCCCCCCCCCP(=O)(CCCCCCCCCC)C(O)C(Cl)(Cl)Cl (stereo not given)
inactive: dose: 100.0 mg/kg/injection, schedule: Q01DX001 (ip), vehicle: saline with Tween-80 91 % of control | dose: 200.0 mg/kg/injection, schedule: Q01DX001 (ip), vehicle: saline with Tween-80 93 % of control | dose: 400.0 mg/kg/injection, schedule: Q01DX001 (ip), vehicle: saline with Tween-80 94 % of control

O=C(N/N=C/c1ccco1)C1CCCO1 (stereo not given)
inactive: [13] 101 % of control | [14] 102 % of control | [1] 101 % of control and 114 % of control | [3] 106 % of control

Cc1nonc1-c1ccc2c(c1)OCO2
inactive: [2] 103 % of control | [4] 97 % of control | [6] 101 % of control

COC(=O)c1ccccc1C[P+](c1ccccc1)(c1ccccc1)c1ccccc1
inactive: dose: 0.75 mg/kg/injection, schedule: Q01DX001 (ip), vehicle: saline with Tween-80 90 % of control | dose: 0.75 mg/kg/injection, schedule: Q01DX009 (ip), vehicle: saline 91 % of control | dose: 0.75 mg/kg/injection, schedule: Q04DX003 (ip), vehicle: saline 108 % of control | dose: 1.5 mg/kg/injection, schedule: Q01DX001 (ip), vehicle: saline with Tween-80 101 % of control | dose: 1.5 mg/kg/injection, schedule: Q01DX009 (ip), vehicle: saline 102 % of control | dose: 1.5 mg/kg/injection, schedule: Q04DX003 (ip), vehicle: saline 106 % of control | dose: 3.0 mg/kg/injection, schedule: Q01DX001 (ip), vehicle: saline with Tween-80 100 % of control and 106 % of control | dose: 3.0 mg/kg/injection, schedule: Q01DX009 (ip), vehicle: saline 94 % of control | dose: 3.0 mg/kg/injection, schedule: Q04DX003 (ip), vehicle: saline 116 % of control | dose: 3.12 mg/kg/injection, schedule: Q01DX009 (ip), vehicle: saline 100 % of control and 106 % of control | dose: 6.0 mg/kg/injection, schedule: Q01DX001 (ip), vehicle: saline with Tween-80 101 % of control | dose: 6.25 mg/kg/injection, schedule: Q01DX009 (ip), vehicle: saline with Tween-80 97 % of control and 111 % of control | dose: 6.25 mg/kg/injection, schedule: Q01DX009 (ip), vehicle: saline 100 % of control and 91 % of control | dose: 12.5 mg/kg/injection, schedule: Q04DX002 (ip), vehicle: Klucel (hydroxypropylcellulose) (HPC) 102 % of control | dose: 25.0 mg/kg/injection, schedule: Q01DX001 (ip), vehicle: saline with Tween-80 98 % of control | dose: 25.0 mg/kg/injection, schedule: Q04DX002 (ip), vehicle: Klucel (hydroxypropylcellulose) (HPC) 88 % of control | dose: 25.0 mg/kg/injection, schedule: Q04DX002 (ip), vehicle: saline with Tween-80 104 % of control and 88 % of control | dose: 50.0 mg/kg/injection, schedule: Q01DX001 (ip), vehicle: saline with Tween-80 106 % of control | dose: 50.0 mg/kg/injection, schedule: Q04DX002 (ip), vehicle: Klucel (hydroxypropylcellulose) (HPC) 102 % of control

c1ccc2c(c1)ccc1c[s+]ccc12
inactive: dose: 100.0 mg/kg/injection, schedule: Q04DX003 (ip), vehicle: acetone 103 % of control | dose: 200.0 mg/kg/injection, schedule: Q04DX003 (ip), vehicle: acetone 103 % of control

C=C(Br)CNC(=O)Nc1c2ccccc2nc2ccccc12
inactive: [15] 86 % of control | [13] 88 % of control | [14] 89 % of control | [1] 92 % of control | dose: 150.0 mg/kg/injection, schedule: Q01DX009 (ip), vehicle: Klucel (hydroxypropylcellulose) (HPC) 89 % of control | dose: 300.0 mg/kg/injection, schedule: Q01DX009 (ip), vehicle: Klucel (hydroxypropylcellulose) (HPC) 91 % of control

CCOC(=O)C(C#N)C1c2ccccc2Nc2ccccc21 (stereo not given)
inactive: [7] 98 % of control | [8] 95 % of control | [9] 91 % of control

N#Cc1ccccc1COCc1ccccc1
inactive: [1] 102 % of control | [3] 98 % of control | [5] 95 % of control

COc1ccc(OC)c(/C=C/[N+](=O)[O-])c1
inactive: dose: 6.25 mg/kg/injection, schedule: Q01DX009 (ip), vehicle: Klucel (hydroxypropylcellulose) (HPC) 105 % of control | [15] 102 % of control | [13] 107 % of control | [14] 105 % of control | dose: 100.0 mg/kg/injection, schedule: Q04DX003 (ip), vehicle: gum acacia 97 % of control

CCOC(=O)N\C(N)=N/N=C(C)\C=N\N=C(/N)NC(=O)OCC
inactive: dose: 15.0 mg/kg/injection, schedule: Q01DX Z (ip), vehicle: carboxymethylcellulose (CMC) 95 % of control | dose: 30.0 mg/kg/injection, schedule: Q01DX Z (ip), vehicle: carboxymethylcellulose (CMC) 101 % of control | dose: 60.0 mg/kg/injection, schedule: Q01DX Z (ip), vehicle: carboxymethylcellulose (CMC) 106 % of control | dose: 120.0 mg/kg/injection, schedule: Q01DX Z (ip), vehicle: carboxymethylcellulose (CMC) 97 % of control

Cc1ccccc1CN(C)N=O
inactive: [16] 101 % of control | [17] 94 % of control | [18] 91 % of control

Oc1ccccc1N=CC1CCCCC1
inactive: dose: 100.0 mg/kg/injection, schedule: Q04DX003 (ip), vehicle: saline with Tween-80 87 % of control | dose: 200.0 mg/kg/injection, schedule: Q04DX003 (ip), vehicle: saline with Tween-80 88 % of control | dose: 400.0 mg/kg/injection, schedule: Q04DX003 (ip), vehicle: saline with Tween-80 92 % of control

Oc1c(Cl)cc(Cl)cc1/C=N\Nc1ccccn1
inactive: dose: 100.0 mg/kg/injection, schedule: Q01DX001 (ip), vehicle: Klucel (hydroxypropylcellulose) (HPC) 92 % of control | dose: 200.0 mg/kg/injection, schedule: Q01DX001 (ip), vehicle: Klucel (hydroxypropylcellulose) (HPC) 95 % of control | dose: 400.0 mg/kg/injection, schedule: Q01DX001 (ip), vehicle: Klucel (hydroxypropylcellulose) (HPC) 95 % of control

O=c1[nH]c2cnn(-c3ccccc3)c2c(=O)n1O
inactive: dose: 50.0 mg/kg/injection, schedule: Q01DX001 (ip), vehicle: saline 97 % of control | [16] 97 % of control | [17] 97 % of control | [18] 105 % of control
